{"source": "ChEMBL document CHEMBL1201862", "about": "“PubChem BioAssay data set” (2004)", "assay_in_all_cases": "NCI tumour cell line growth inhibition, 48 h", "key": {"A498": {"tested_on": "A498"}, "CAKI-1": {"tested_on": "CAKI-1"}, "CCRF-CEM": {"tested_on": "CCRF-CEM"}, "HCT-116": {"tested_on": "HCT-116"}, "HL-60": {"tested_on": "HL-60"}, "HOP-62": {"tested_on": "HOP-62"}, "Hs-578T": {"tested_on": "Hs-578T"}, "MDA-MB-231": {"tested_on": "MDA-MB-231"}, "MOLT-4": {"tested_on": "MOLT-4"}, "Malme-3M": {"tested_on": "Malme-3M"}, "NCI-H226": {"tested_on": "NCI-H226"}, "NCI-H522": {"tested_on": "NCI-H522"}, "NCI/ADR-RES": {"tested_on": "NCI/ADR-RES"}, "RPMI-8226": {"tested_on": "RPMI-8226"}, "RXF 393": {"tested_on": "RXF 393"}, "SF-268": {"tested_on": "SF-268"}, "SF-295": {"tested_on": "SF-295"}, "SK-OV-3": {"tested_on": "SK-OV-3"}, "SW-620": {"tested_on": "SW-620"}, "UO-31": {"tested_on": "UO-31"}}, "note": "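96-well plates; 48 h exposure; 5 concentrations. Endpoints by linear interpolation between flanking doses. Not reached: highest tested concentration assigned. GI50: concentration for 50% inhibition of growth.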 Active and inactive are the calls of the source. Rule as the data show it: active = GI50 up to about 1.1 µM and inactive = higher."}
{"smiles": "CCOC(=O)c1c(C)n(CCN2CCN(C)CC2)c2ccc(OC)cc12", "values": [{"measurement": "GI50", "setting": "A498", "result": "22.5 µM (inactive)"}, {"measurement": "GI50", "setting": "CAKI-1", "result": "32.3 µM (inactive)"}, {"measurement": "GI50", "setting": "CCRF-CEM", "result": "24 µM (inactive)"}, {"measurement": "GI50", "setting": "HCT-116", "result": "38.4 µM (inactive)"}, {"measurement": "GI50", "setting": "HL-60", "result": "19.6 µM (inactive)"}, {"measurement": "GI50", "setting": "HOP-62", "result": "32.3 µM (inactive)"}, {"measurement": "GI50", "setting": "Hs-578T", "result": "55.5 µM (inactive)"}, {"measurement": "GI50", "setting": "MDA-MB-231", "result": "24.5 µM (inactive)"}, {"measurement": "GI50", "setting": "MOLT-4", "result": "22.6 µM (inactive)"}, {"measurement": "GI50", "setting": "Malme-3M", "result": "21.9 µM (inactive)"}, {"measurement": "GI50", "setting": "NCI-H226", "result": "29.7 µM (inactive)"}, {"measurement": "GI50", "setting": "NCI-H522", "result": "28.6 µM (inactive)"}, {"measurement": "GI50", "setting": "NCI/ADR-RES", "result": "69.7 µM (inactive)"}, {"measurement": "GI50", "setting": "RPMI-8226", "result": "20.4 µM (inactive)"}, {"measurement": "GI50", "setting": "RXF 393", "result": "30.1 µM (inactive)"}, {"measurement": "GI50", "setting": "SF-268", "result": "53.7 µM (inactive)"}, {"measurement": "GI50", "setting": "SF-295", "result": "34.8 µM (inactive)"}, {"measurement": "GI50", "setting": "SK-OV-3", "result": "72.6 µM (inactive)"}, {"measurement": "GI50", "setting": "SW-620", "result": "37.5 µM (inactive)"}, {"measurement": "GI50", "setting": "UO-31", "result": "35.1 µM (inactive)"}]}
{"smiles": "COc1ccc(OC)c(N2C(=O)/C(=C\\c3ccccc3)SC2c2cc(OC)c(OC)c(OC)c2)c1", "note": "(stereo not given)", "values": [{"measurement": "GI50", "setting": "A498", "result": "51.5 µM (inactive)"}, {"measurement": "GI50", "setting": "CAKI-1", "result": "> 84.3 µM (inactive)"}, {"measurement": "GI50", "setting": "CCRF-CEM", "result": "49.5 µM (inactive)"}, {"measurement": "GI50", "setting": "HCT-116", "result": "> 100 µM (inactive)"}, {"measurement": "GI50", "setting": "HL-60", "result": "58.9 µM (inactive)"}, {"measurement": "GI50", "setting": "HOP-62", "result": "> 100 µM (inactive)"}, {"measurement": "GI50", "setting": "Hs-578T", "result": "> 78 µM (inactive)"}, {"measurement": "GI50", "setting": "MDA-MB-231", "result": "> 100 µM (inactive)"}, {"measurement": "GI50", "setting": "MOLT-4", "result": "52.6 µM (inactive)"}, {"measurement": "GI50", "setting": "Malme-3M", "result": "> 100 µM (inactive)"}, {"measurement": "GI50", "setting": "NCI-H226", "result": "> 100 µM (inactive)"}, {"measurement": "GI50", "setting": "NCI-H522", "result": "30.9 µM (inactive)"}, {"measurement": "GI50", "setting": "NCI/ADR-RES", "result": "> 71.3 µM (inactive)"}, {"measurement": "GI50", "setting": "RPMI-8226", "result": "71.4 µM (inactive)"}, {"measurement": "GI50", "setting": "RXF 393", "result": "11.6 µM (inactive)"}, {"measurement": "GI50", "setting": "SF-268", "result": "> 100 µM (inactive)"}, {"measurement": "GI50", "setting": "SF-295", "result": "47.5 µM (inactive)"}, {"measurement": "GI50", "setting": "SK-OV-3", "result": "> 100 µM (inactive)"}, {"measurement": "GI50", "setting": "SW-620", "result": "46.6 µM (inactive)"}, {"measurement": "GI50", "setting": "UO-31", "result": "> 89.7 µM (inactive)"}]}
{"smiles": "C[C@]12CCC(=O)C=C1CC[C@@H]1[C@@H]2[C@@H](O)C[C@@]2(C)[C@H]1CC[C@]2(O)C(=O)CO", "note": "[HYDROCORTISONE]", "values": [{"measurement": "GI50", "setting": "A498", "result": "> 100 µM (inactive)"}, {"measurement": "GI50", "setting": "CAKI-1", "result": "> 100 µM (inactive)"}, {"measurement": "GI50", "setting": "CCRF-CEM", "result": "18.7 µM (inactive)"}, {"measurement": "GI50", "setting": "HCT-116", "result": "> 100 µM (inactive)"}, {"measurement": "GI50", "setting": "HL-60", "result": "> 100 µM (inactive)"}, {"measurement": "GI50", "setting": "HOP-62", "result": "> 100 µM (inactive)"}, {"measurement": "GI50", "setting": "Hs-578T", "result": "> 100 µM (inactive)"}, {"measurement": "GI50", "setting": "MDA-MB-231", "result": "> 100 µM (inactive)"}, {"measurement": "GI50", "setting": "MOLT-4", "result": "> 100 µM (inactive)"}, {"measurement": "GI50", "setting": "Malme-3M", "result": "> 100 µM (inactive)"}, {"measurement": "GI50", "setting": "NCI-H226", "result": "> 100 µM (inactive)"}, {"measurement": "GI50", "setting": "NCI-H522", "result": "> 100 µM (inactive)"}, {"measurement": "GI50", "setting": "NCI/ADR-RES", "result": "> 100 µM (inactive)"}, {"measurement": "GI50", "setting": "RPMI-8226", "result": "0.34 µM (active)"}, {"measurement": "GI50", "setting": "RXF 393", "result": "> 100 µM (inactive)"}, {"measurement": "GI50", "setting": "SF-268", "result": "> 100 µM (inactive)"}, {"measurement": "GI50", "setting": "SF-295", "result": "> 100 µM (inactive)"}, {"measurement": "GI50", "setting": "SK-OV-3", "result": "> 100 µM (inactive)"}, {"measurement": "GI50", "setting": "SW-620", "result": "> 100 µM (inactive)"}, {"measurement": "GI50", "setting": "UO-31", "result": "> 100 µM (inactive)"}]}
{"smiles": "C=C(C)[C@H]1Cc2c(ccc3c2O[C@@H]2COc4cc(OC)c(OC)cc4[C@@H]2C3=O)O1", "note": "[ROTENONE]", "values": [{"measurement": "GI50", "setting": "A498", "result": "0.335 µM (active)"}, {"measurement": "GI50", "setting": "CAKI-1", "result": "0.185 µM (active)"}, {"measurement": "GI50", "setting": "CCRF-CEM", "result": "0.951 µM (active)"}, {"measurement": "GI50", "setting": "HCT-116", "result": "0.0618 µM (active)"}, {"measurement": "GI50", "setting": "HL-60", "result": "0.0611 µM (active)"}, {"measurement": "GI50", "setting": "HOP-62", "result": "0.168 µM (active)"}, {"measurement": "GI50", "setting": "Hs-578T", "result": "0.0785 µM (active)"}, {"measurement": "GI50", "setting": "MDA-MB-231", "result": "1.02 µM (active)"}, {"measurement": "GI50", "setting": "MOLT-4", "result": "0.693 µM (active)"}, {"measurement": "GI50", "setting": "Malme-3M", "result": "0.0762 µM (active)"}, {"measurement": "GI50", "setting": "NCI-H226", "result": "0.177 µM (active)"}, {"measurement": "GI50", "setting": "NCI-H522", "result": "0.0247 µM (active)"}, {"measurement": "GI50", "setting": "NCI/ADR-RES", "result": "0.0635 µM (active)"}, {"measurement": "GI50", "setting": "RPMI-8226", "result": "0.0575 µM (active)"}, {"measurement": "GI50", "setting": "RXF 393", "result": "0.0836 µM (active)"}, {"measurement": "GI50", "setting": "SF-268", "result": "0.191 µM (active)"}, {"measurement": "GI50", "setting": "SF-295", "result": "0.0399 µM (active)"}, {"measurement": "GI50", "setting": "SK-OV-3", "result": "0.206 µM (active)"}, {"measurement": "GI50", "setting": "SW-620", "result": "0.131 µM (active)"}, {"measurement": "GI50", "setting": "UO-31", "result": "0.131 µM (active)"}]}
{"smiles": "COc1cc2c3c(c4ccc(OC)c(OC)c4c2cc1OC)CN1CCC[C@@H]1C3", "note": "[TYLOCREBRINE]", "values": [{"measurement": "GI50", "setting": "A498", "result": "< 0.01 µM (active)"}, {"measurement": "GI50", "setting": "CAKI-1", "result": "< 0.0216 µM (active)"}, {"measurement": "GI50", "setting": "CCRF-CEM", "result": "0.0269 µM (active)"}, {"measurement": "GI50", "setting": "HCT-116", "result": "0.0266 µM (active)"}, {"measurement": "GI50", "setting": "HL-60", "result": "0.0343 µM (active)"}, {"measurement": "GI50", "setting": "HOP-62", "result": "0.0316 µM (active)"}, {"measurement": "GI50", "setting": "Hs-578T", "result": "0.0182 µM (active)"}, {"measurement": "GI50", "setting": "MDA-MB-231", "result": "0.0204 µM (active)"}, {"measurement": "GI50", "setting": "MOLT-4", "result": "0.043 µM (active)"}, {"measurement": "GI50", "setting": "Malme-3M", "result": "0.0248 µM (active)"}, {"measurement": "GI50", "setting": "NCI-H226", "result": "< 0.0176 µM (active)"}, {"measurement": "GI50", "setting": "NCI-H522", "result": "0.0313 µM (active)"}, {"measurement": "GI50", "setting": "NCI/ADR-RES", "result": "< 0.0166 µM (active)"}, {"measurement": "GI50", "setting": "RPMI-8226", "result": "0.0325 µM (active)"}, {"measurement": "GI50", "setting": "RXF 393", "result": "< 0.0155 µM (active)"}, {"measurement": "GI50", "setting": "SF-268", "result": "< 0.0171 µM (active)"}, {"measurement": "GI50", "setting": "SF-295", "result": "0.0395 µM (active)"}, {"measurement": "GI50", "setting": "SK-OV-3", "result": "0.124 µM (active)"}, {"measurement": "GI50", "setting": "SW-620", "result": "0.0586 µM (active)"}, {"measurement": "GI50", "setting": "UO-31", "result": "< 0.01 µM (active)"}]}
